# In publication PMC5193077, “An Allosteric Potentiator of the Dopamine D1 Receptor Increases Locomotor Activity in Human D1 Knock-In Mice without Causing Stereotypy or Tachyphylaxis” (The Journal of Pharmacology and Experimental Therapeutics, 2017):
# Structures can show the parent of a compound that is named as a salt.
# Legend:
# [1] = tested on: hD1 mice; experiment: Locomotor activity (LMA) in hD1 mice; assay type: in vivo, mouse; conditions: hD1 mice; for Shape of LMA dose-response curve: DETQ up to 240 mg/kg
# Text: Male hD1 mice, 8–10 weeks old (weighing 18 to 25 g at the time of the experiment), were used. Monitoring of mouse LMA took place in transparent plastic shoebox cages having dimensions of 45 × 25 × 20 cm, with a 1-cm depth of wood chips for absorbent bedding, and covered with a ventilated filtered plastic cage top.
# Cages were placed in a rectangular frame containing a grid of 12 photocell beams in an 8 × 4 configuration (Kinder Scientific, Poway, CA) that were positioned 2.5 cm from the floor of the cage for the detection of body movements (ambulations), which were recorded by computer for analysis. Mice were placed inside individual LMA boxes for 1 hour during an acclimation period. Mice were then dosed with test compounds (oral or subcutaneous) and were replaced inside individual LMA boxes for the start of LMA. Photocell activity (total ambulations) was collected for 60 minutes using software from Hamilton Kinder (Poway, CA).
# Calculation of data based on total ambulations was done using Excel (Microsoft, Redmond, WA). Graphing and statistical analysis of data were done using one-way analysis of variance followed by Dunnett’s multiple comparison test using GraphPad Prism.
# [2] = molecular target: T1, human D1 receptor (Homo sapiens, UniProt P21728); experiment: cAMP response in HEK293 cells stably expressing the human D1 receptor; assay type: cell-based; conditions: with 12 nM dopamine; % of window between EC20 dopamine and maximum dopamine response
# [3] = tested on: hD1 mice; experiment: Video-tracking of horizontal motion, rearing and grooming in hD1 mice; assay type: in vivo, mouse
# Text: The apparatus for the video-tracking assessment experiment included 12 custom-built video-tracking observation chambers and the HomeCageScan (CleverSys, Reston, VA) software system. The chambers, measuring (in inches) 8 width × 10 length × 8 height, consisted of two end walls, a back wall, a top, and a floor constructed of ¼-in. translucent white acrylic, and one side (front) constructed of clear acrylic. LED strip lighting was placed below the chamber for illumination. A color video camera (640 × 480, 30 frames per second) was placed in front of each chamber to record behavior from a side view. The chambers were located in large sound-attenuating chambers to reduce ambient room noise and isolate lighting. The cameras were connected in groups of four to a quad multiplexer (model NVQC-42N; Nuvico, Englewood, NJ), with each multiplexer connected to its own computer, which then recorded each session to an MPEG file.
# At the end of the experiment the files were batch-analyzed by a computer running the CleverSys CageScan video-tracking software. This software can recognize and quantify several different behaviors, including LMA, grooming, rearing, immobility, and feeding behaviors. The current experiment examined behavior in a novel open-field environment rather than home-cage activity, which limited behaviors of interest to LMA, grooming, and rearing.
# For HomeCageScan behavioral phenotyping, male D1 knock-in mice (8–12 weeks, 20–25 g body weight) were placed into the observation chambers for a 60-minute habituation session. […] All behavioral activity was monitored and scored by the HomeCageScan system.
# [4] = molecular target: T1, human D1 receptor; experiment: D1 receptor internalization (PathHunter, DiscoveRx)
# [5] = tested on: hD1 and wild-type mice; experiment: Seizure observation in mice; assay type: in vivo, mouse; conditions: higher doses, unpublished observation
# [6] = tested on: hD1 mice; experiment: Locomotor activity (LMA) in hD1 mice; assay type: in vivo, mouse; conditions: nonhabituated hD1 mice, 30 min pretreatment
# [7] = with EC20 dopamine, 0% = EC20 dopamine response, 100% = maximum dopamine response
# T1 sequence (P21728 whole entry): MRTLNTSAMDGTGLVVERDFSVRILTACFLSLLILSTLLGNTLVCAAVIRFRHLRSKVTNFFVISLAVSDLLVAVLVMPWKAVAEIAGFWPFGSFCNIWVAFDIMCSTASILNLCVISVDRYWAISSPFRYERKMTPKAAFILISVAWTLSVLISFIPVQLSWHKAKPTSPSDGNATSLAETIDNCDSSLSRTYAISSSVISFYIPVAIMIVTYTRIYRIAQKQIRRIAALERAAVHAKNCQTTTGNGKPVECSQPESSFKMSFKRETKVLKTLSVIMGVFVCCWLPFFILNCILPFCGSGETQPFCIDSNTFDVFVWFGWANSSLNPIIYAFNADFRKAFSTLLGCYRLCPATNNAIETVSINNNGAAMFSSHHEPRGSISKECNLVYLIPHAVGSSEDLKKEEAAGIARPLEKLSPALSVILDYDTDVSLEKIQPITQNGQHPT
compound,measurement,setting,value
"Oc1cc2c(cc1O)[C@H]1c3ccccc3CN[C@@H]1CC2 (racemic) [dihydrexidine, reference compound]",Shape of LMA dose-response curve,[1],bell-shaped curves
"Cl.NC[C@@H]1O[C@H](C23CC4CC(CC(C4)C2)C3)Cc2c1ccc(O)c2O [A-77636, (1R)-3-(1-adamantyl)-1-(aminomethyl)-3,4-dihydro-1H-isochromene-5,6-diol;hydrochloride, reference compound]","Top, cAMP, potentiator mode",[2],121.0%
same,LMA response on repeated once-a-day dosing,[1]; once daily for 4 days,completely abolished by day 2
same,Shape of LMA dose-response curve,[1],bell-shaped curves
same,Horizontal locomotion and rearing,[3],increase in horizontal locomotion and rearing at lower doses
same,Pathway Preference cAMP/Internalization,[4]; RA for cAMP divided by RA for internalization,6.6
same,"RA, Internalization","[4]; top divided by EC50, with 407 nM dopamine",7.78
same,"Bottom, D1 receptor internalization",[4]; [7],−12.8%
same,"Top, D1 receptor internalization",[4]; [7],112.0%
"CCCc1cc2c(s1)CN[C@@H]1CCc3cc(OC(C)=O)c(OC(C)=O)cc3[C@@H]21 [ABT-431, adrogolide hydrochloride]",Seizures,[5],induced seizures
"CN1CCc2cc(Cl)c(O)cc2[C@H]2c3ccccc3CC[C@@H]21 [SCH39166, (6aS,13bR)-11-chloro-7-methyl-5,6,6a,8,9,13b-hexahydronaphtho[1,2-a][3]benzazepin-12-ol]",Dose that lowered DETQ-stimulated activity,[6],0.03 mg/kg
same,Dose that lowered basal exploratory activity,[6],0.01 mg/kg
"C=CCN1CCc2c(cc(O)c(O)c2Cl)C(c2ccccc2)C1 (stereo not drawn) [SKF 82958, 9-chloro-5-phenyl-3-prop-2-enyl-1,2,4,5-tetrahydro-3-benzazepine-7,8-diol]",Shape of LMA dose-response curve,[1],bell-shaped curves
same,Grooming (index of stereotyped behavior),[3],supplanted by grooming at higher doses
same,Horizontal locomotion and rearing,[3],increase in horizontal locomotion and rearing at lower doses
